According to patent US20230012368A1 (Hoffmann-La Roche Inc., priority 2018, published 2023):
Where a name gives a salt, the structure may show the parent alone.

test system: Acinetobacter baumannii ATCC 17978; assay: Antimicrobial susceptibility testing: 90% growth inhibitory concentration (IC90) determination; type: cell-based; details: 90% growth inhibitory concentration; Acinetobacter baumannii ATCC17978; Iso-Sensitest broth, OD 600 nm over 16h; read-out: ATCC17978 IC90
In short: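 Growth of the Acinetobacter baumannii strain was followed by optical density at 600 nm every 20 minutes for 16h at 35±2° C. Inoculum was ~5×10^(5) CFU/ml in Iso-Sensitest medium, with twofold compound dilutions (e.g. 50 to 0.097 μM final). The 90% inhibitory concentration was derived in log-phase growth.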

Row | SMILES | IC90
1 | CCc1cc(Nc2nccn3c(-c4ccc(Oc5ccc(C(=O)NCCCN)cn5)c(F)c4F)cnc23)ccc1C(=O)NC [Example 507, N-(3-aminopropyl)-6-[4-[8-[3-ethyl-4-(methylcarbamoyl)anilino]imidazo[1,2-a]pyrazin-3-yl]-2,3-difluoro-phenoxy]pyridine-3-carboxamide; formic acid] | 0.5 µM
2 | CCc1cc(Nc2nccn3c(-c4ccc(OC)c(F)c4F)cnc23)ccc1C(=O)NC(CCN)C(F)(F)F (stereo not drawn) [Example 320, N-(4-amino-1,1,1-trifluorobutan-2-yl)-4-[[3-(2,3-difluoro-4-methoxyphenyl)imidazo[1,2-a]pyrazin-8-yl]amino]-2-ethylbenzamide; hydrochloride] | 2.7 µM
3 | Cc1cc(Nc2nccn3c(-c4ccc(Cl)c(F)c4F)cnc23)ccc1C(=O)NC(C)CCN (stereo not drawn) [Example 318, N-(4-aminobutan-2-yl)-4-[[3-(4-chloro-2,3-difluorophenyl)imidazo[1,2-a]pyrazin-8-yl]amino]-2-methylbenzamide; hydrochloride] | 2.5 µM

same assay, conditions: Acinetobacter baumannii, ATCC17978, 16 h, 90% growth inhibitory concentration; Acinetobacter baumannii ATCC17978; Iso-Sensitest broth, OD 600 nm over 16h; read-out: ATCC17978 IC90

Row | IC90 | SMILES
4 | 0.1 µM | CCc1cc(Nc2nccn3c(-c4ccc(OCC#N)c(F)c4F)cnc23)ccc1C(=O)NCCNC(=O)[C@H](N)CCCNC(=N)N [Example 148, N-[2-[[(2R)-2-amino-5-guanidino-pentanoyl]amino]ethyl]-4-[[3-[4-(cyanomethoxy)-2,3-difluoro-phenyl]imidazo[1,2-a]pyrazin-8-yl]amino]-2-ethyl-benzamide formate]
5 | 2.1 µM | COc1ccc(-c2cnc3c(Nc4ccc(C(=O)NCCCN)c(CC(F)F)c4)nccn23)c(F)c1F [Example 316, N-(3-aminopropyl)-2-(2,2-difluoroethyl)-4-[[3-(2,3-difluoro-4-methoxyphenyl)imidazo[1,2-a]pyrazin-8-yl]amino]benzamide;formic acid]
6 | 0.066 µM | CCc1cc(Nc2nccn3c(-c4ccc(OC)c(F)c4F)cnc23)ccc1C(=O)NCC1CCNCC1 [Example 543, 4-((3-(2,3-difluoro-4-methoxyphenyl)imidazo[1,2-a]pyrazin-8-yl)amino)-2-ethyl-N-(piperidin-4-ylmethyl)benzamide formate]
7 | 0.32 µM | CCc1cc(Nc2nccn3c(-c4ccc(OC)c(F)c4F)cnc23)ccc1C(=O)N[C@@H](C)CN [Example 102, (S)-N-(1-aminopropan-2-yl)-4-((3-(2,3-difluoro-4-methoxyphenyl)imidazo [1,2-a]pyrazin-8-yl)amino)-2-ethylbenzamide dihydrochloride]
8 | 0.52 µM | CCc1cc(Nc2nccn3c(-c4ccc(OC)c(F)c4F)cnc23)ccc1C(=O)NCC(O)CNC(=O)[C@@H](N)CN (mixture of isomers) [Example 415, N-[3-[[(2S)-2,3-diaminopropanoyl]amino]-2-hydroxypropyl]-4-[[3-(2,3-difluoro-4-methoxyphenyl)imidazo[1,2-a]pyrazin-8-yl]amino]-2-ethylbenzamide;dihydrochlo-ride]
9 | 0.15 µM | CCc1cc(Nc2nccn3c(-c4ccc(OC)c(F)c4F)cnc23)ccc1C(=O)NCc1cnn(C)c1 [Example 555, 4-[[3-(2,3-difluoro-4-methoxy-phenyl)imidazo[1,2-a]pyrazin-8-yl]amino]-2-ethyl-N-[(1-methylpyrazol-4-yl)methyl]benzamide]
10 | 0.11 µM | CCc1cc(Nc2nccn3c(-c4ccc(OC)c(F)c4F)cnc23)ccc1C(=O)NCCCO[C@@H]1O[C@H](CO)[C@H](O)[C@H](O)[C@H]1N [Example 520, N-[3-[(2R,3R,4R,5R,6R)-3-amino-4,5-dihydroxy-6-(hydroxymethyl)oxan-2-yl]oxypropyl]-4-[[3-(2,3-difluoro-4-methoxyphenyl)imidazo[1,2-a]pyrazin-8-yl]amino]-2-ethylbenzamide;formic acid]
11 | 0.26 µM | CCc1cc(Nc2nccn3c(-c4ccc(OC)c(F)c4F)cnc23)ccc1C(=O)NC[C@H](C)N [Example 522, (S)-N-(2-aminopropyl)-4-((3-(2,3-difluoro-4-methoxyphenyl)imidazo[1,2-a]pyrazin-8-yl)amino)-2-ethylbenzamide hydrochloride]
12 | 0.09 µM | CCc1cc(Nc2nccn3c(-c4ccc(OCC#N)c(F)c4F)cnc23)ccc1C(=O)NCCNC(=O)[C@@H](N)CCCNC(=N)N [Example 124, N-[2-[[(2S)-2-amino-5-guanidino-pentanoyl]amino]ethyl]-4-[[3-[4-(cyanomethoxy)-2,3-difluoro-phenyl]imidazo[1,2-a]pyrazin-8-yl]amino]-2-ethyl-benzamide formate]
13 | 0.11 µM | CCc1cc(Nc2nccn3c(-c4ccc(OC)c(F)c4F)cnc23)ccc1C(=O)NC[C@H]1CCNC1 [Example 530, (S)-4-((3-(2,3-difluoro-4-methoxyphenyl)imidazo[1,2-a]pyrazin-8-yl)amino)-2-ethyl-N-(pyrrolidin-3-ylmethyl)benzamide hydrochloride]
14 | 0.2 µM | CCc1cc(Nc2nccn3c(-c4ccc(OC)c(F)c4F)cnc23)ccc1C(=O)NCCNC(=O)CC(O)CN (stereo not drawn) [Example 376, N-[2-[(4-amino-3-hydroxybutanoyl)amino]ethyl]-4-[[3-(2,3-difluoro-4-methoxyphenyl)imidazo[1,2-a]pyrazin-8-yl]amino]-2-ethylbenzamide]
15 | 0.41 µM | CCc1cc(Nc2nccn3c(-c4ccc(OC)c(F)c4F)cnc23)ccc1C(=O)NC[C@H](C)NC(=O)[C@@H](N)CCCNC(=N)N [Example 123, N-[(2S)-2-[[(2S)-2-amino-5-guanidino-pentanoyl]amino]propyl]-4-[[3-(2,3-difluoro-4-methoxy-phenyl)imidazo[1,2-a]pyrazin-8-yl]amino]-2-ethyl-benzamide formate]
16 | 0.56 µM | CCc1cc(Nc2nccn3c(-c4ccc(OC)c(F)c4F)cnc23)ccc1C(=O)NCCNC(=O)NCCN [Example 339, N-[2-(2-aminoethylcarbamoylamino)ethyl]-4-[[3-(2,3-difluoro-4-methoxyphenyl)imidazo[1,2-a]pyrazin-8-yl]amino]-2-ethylbenzamide]
17 | 0.037 µM | CCc1cc(Nc2nccn3c(-c4ccc(OC)c(F)c4F)cnc23)ccc1C(=O)NCCCCCCN [Example 494, N-(6-aminohexyl)-4-((3-(2,3-difluoro-4-methoxyphenyl)imidazo[1,2-a]pyrazin-8-yl)amino)-2-ethylbenzamide hydrochloride]

Further lines, the molecule ahead of its results:

Row | SMILES | IC90
18 | COc1ccc(-c2cnc3c(Nc4ccc(C(=O)NC[C@@H](N)CNC(=O)[C@@H]5C[C@@H](O)CN5)c(C)c4)nccn23)c(F)c1F [Example 468, (2S,4R)-N-[(2R)-2-amino-3-[[4-[[3-(2,3-difluoro-4-methoxy-phenyl)imidazo[1,2-a]pyrazin-8-yl]amino]-2-methyl-benzoyl]amino]propyl]-4-hydroxy-pyrrolidine-2-carboxamide; formic acid] | 0.48 µM
19 | Cc1cc(Nc2nccn3c(-c4ccc(OC(F)F)cc4)cnc23)ccc1C(=O)NCC1CCN(C)CC1 [Example 198, 4-[[3-[4-(difluoromethoxy)phenyl]im-idazo[1,2-a]pyrazin-8-yl]amino]-2-methyl-N-[(1-methylpiperidin-4-yl)methyl]benzamide] | 0.72 µM
20 | Cc1cc(Nc2nccn3c(-c4ccc(OC(F)F)cc4)cnc23)ccc1C(=O)NCCN1CCNCC1 [Example 46] | 0.49 µM
21 | CC(=O)N1CCC(CCN(C)C(=O)c2ccc(Nc3nccn4c(-c5ccc(OC(F)F)cc5)cnc34)cc2C)CC1 [Example 204, N-[2-(1-acetylpiperidin-4-yl)ethyl]-4-[[3-[4-(difluoromethoxy)phenyl]im-idazo[1,2-a]pyrazin-8-yl]amino]-N,2-dimethylbenzamide] | 0.53 µM
22 | Cc1cc(Nc2nccn3c(-c4ccc(OC(F)F)cc4)cnc23)ccc1C(=O)N(C)CCCN1CCCCC1 [Example 257, 4-[[3-[4-(difluoromethoxy)phenyl]im-idazo[1,2-a]pyrazin-8-yl]amino]-N,2-dimethyl-N-(3-piperidin-1-ylpropyl)benzamide] | 3.6 µM
23 | CCc1cc(Nc2nccn3c(-c4ccc(Oc5ccncn5)c(F)c4F)cnc23)ccc1C(=O)NCCNC(=O)[C@H](N)CCNC(=N)N [Example 441, N-[2-[[(2R)-2-amino-4-guanidino-butanoyl]amino]ethyl]-4-[[3-(2,3-difluoro-4-pyrimidin-4-yloxy-phenyl)imidazo[1,2-a]pyrazin-8-yl]amino]-2-ethyl-benzamide; formic acid] | 0.46 µM
24 | Cc1cc(Nc2nccn3c(-c4ccc(OCC#N)c(F)c4F)cnc23)ccc1C(=O)NCCNC(=O)[C@@H]1C[C@](C)(O)CN1 [Example 133, (2S,4S)-N-[2-[[4-[[3-[4-(cyanomethoxy)-2,3-difluoro-phenyl]imidazo[1,2-a]pyrazin-8-yl]amino]-2-methyl-benzoyl]amino]ethyl]-4-hydroxy-4-methyl-pyrrolidine-2-carboxamide formate] | 0.09 µM
25 | Cc1cc(Nc2nccn3c(-c4ccc(OC(F)F)cc4)cnc23)ccc1C(=O)N[C@H](C)CN [Example 270, N-[(2R)-1-aminopropan-2-yl]-4-[[3-[4-(difluoromethoxy)phenyl]im-idazo[1,2-a]pyrazin-8-yl]amino]-2-methylbenzamide;hydrochlo-ride] | 7.7 µM
26 | CCc1cc(Nc2nccn3c(-c4ccc(Oc5ccccn5)c(F)c4F)cnc23)ccc1C(=O)N(C)C [Example 471, 4-[[3-[2,3-difluoro-4-(2-pyridyloxy)phenyl]imidazo [1,2-a]pyrazin-8-yl]amino]-2-ethyl-N,N-dimethyl-benzamide] | 0.66 µM
27 | COc1ccc(-c2cnc3c(Nc4ccc(C(=O)NCC5CNCCO5)c(C)c4)nccn23)cc1F (stereo not drawn) [Example 232, 4-[[3-(3-fluoro-4-methoxyphenyl)imidazo[1,2-a]pyrazin-8-yl]amino]-2-methyl-N-(morpholin-2-ylmethyl)benzamide; hydrochlo-ride] | 1.3 µM
